Measurements published in patent US20250092043A1, “Kinase Inhibitors and Degraders” (Incyte Corporation, priority 2023, published 2025).

The compounds below were run against T1, JAK2 (Homo sapiens, UniProt O60674, V617F) (assay: Western blot quantitation of JAK2 degradation in SET2 cells). Details: 0.5 μM compound (cells marked **), 8 hours treatment, western blot densitometry vs. DMSO vehicle.
T1 construct: their effect on JAK2 protein degradation in SET2 cells; host or cells: SET2 cells (human essential thrombocythemia)
T1 sequence (O60674 whole entry V617F): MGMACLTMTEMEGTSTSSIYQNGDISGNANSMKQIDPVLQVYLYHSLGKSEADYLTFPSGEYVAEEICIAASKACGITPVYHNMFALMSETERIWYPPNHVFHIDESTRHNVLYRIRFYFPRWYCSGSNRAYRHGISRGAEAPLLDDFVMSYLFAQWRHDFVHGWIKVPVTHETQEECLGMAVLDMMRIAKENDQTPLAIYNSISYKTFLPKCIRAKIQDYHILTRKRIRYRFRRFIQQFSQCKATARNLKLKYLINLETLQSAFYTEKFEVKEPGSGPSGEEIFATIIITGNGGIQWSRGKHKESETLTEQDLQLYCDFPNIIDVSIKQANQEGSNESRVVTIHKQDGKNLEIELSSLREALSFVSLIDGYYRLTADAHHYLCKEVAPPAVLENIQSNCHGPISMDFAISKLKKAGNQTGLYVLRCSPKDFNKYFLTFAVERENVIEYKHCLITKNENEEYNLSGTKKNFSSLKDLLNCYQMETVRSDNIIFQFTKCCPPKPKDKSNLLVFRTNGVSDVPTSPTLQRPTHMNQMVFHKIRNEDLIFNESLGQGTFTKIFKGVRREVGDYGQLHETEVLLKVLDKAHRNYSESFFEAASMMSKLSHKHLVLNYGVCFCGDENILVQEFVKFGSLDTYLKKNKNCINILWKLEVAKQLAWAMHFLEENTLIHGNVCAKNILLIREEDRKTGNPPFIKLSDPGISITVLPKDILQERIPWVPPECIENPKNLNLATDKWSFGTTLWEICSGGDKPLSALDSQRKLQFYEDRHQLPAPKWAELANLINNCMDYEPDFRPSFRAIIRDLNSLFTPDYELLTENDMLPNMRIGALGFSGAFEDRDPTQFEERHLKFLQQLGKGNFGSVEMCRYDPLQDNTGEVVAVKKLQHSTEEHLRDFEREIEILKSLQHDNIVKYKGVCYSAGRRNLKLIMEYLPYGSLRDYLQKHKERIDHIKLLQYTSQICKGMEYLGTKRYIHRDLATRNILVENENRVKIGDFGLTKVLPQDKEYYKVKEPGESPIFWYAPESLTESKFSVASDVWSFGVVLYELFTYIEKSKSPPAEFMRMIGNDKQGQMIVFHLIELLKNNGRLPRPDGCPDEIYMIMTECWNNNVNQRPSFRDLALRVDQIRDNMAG
Type: cell-based
Protocol: Example E. Western Blot Analysis of JAK2 Dependent SET2 Cells Treated with Compounds of the Present Disclosure
SET2 cells (DSMZ, catalog number ACC 608) are isolated from a person with human essential thrombocythemia and carry the JAK2 V617F mutation.
SET2 cells were cultured in RPMI culture medium (Gibco, catalog number 11875085) supplemented with 1% penicillin-streptomycin-glutamine (Thermo Fisher Scientific, catalog number 10378016) and 20% fetal bovine serum (Gibco, catalog number 10438034). Cultured cells were maintained at 37° C., 5% CO2 in the incubator.
Approximately 1,000,000 cells/well were added in 6-well plate containing 1.5 ml culture media with specified concentrations of compounds of the present disclosure or DMSO control. Cells were treated with concentrations of 10 uM, 5 uM, 1 uM, and 0.5 uM. Proteasome inhibitor MG-132 (Cell signaling, catalog number 2194) was added at 20 uM to an additional 10 uM compound treatment. The treatment period was 8 hours. After 8 hours, cells were collected in 1.5 mL microcentrifuge tubes. Tubes were centrifuged at 1500 rpm for 5 min. Supernatant was aspirated and samples were washed with 1 mL of cold PBS. The samples were centrifuged again at 1500 rpm for 5 min, supernatant was aspirated. The sample pellets were lysed using 150 μL of 1× lysing buffer (Cell Signaling Technologies—catalog number 9803S) supplemented with 1× Halt™ Protease and Phosphatase Inhibitor Cocktail (Thermo Fisher Scientific—catalog number 78447). Using Pierce™ BCA Protein Assay Kit (Thermo Fisher Scientific—catalog number 23225), protein concentration of the samples were quantitated. After normalizing sample concentration to approximately 20 ug/well, samples were loaded onto 4-12% Tris-glycine gels. Gels were transferred to nitrocellulose membranes using iBlot 2 Dry Blotting System and iBlot™ 2 Transfer Stacks, nitrocellulose (Thermo Fisher Scientific—catalog number IB23001). Following transfer, membranes were blocked with StartingBlock (Thermo Fisher Scientific—catalog number 37543). After 1 hour of blocking membranes, they were probed for JAK2, pSTAT5, STAT5, CRBN, and GAPDH (Cell Signaling—catalog numbers 3230, 4322, 25656, 71810, and 5174 respectively).
Compounds of the present disclosure were screened at various concentrations to determine their effect on JAK2 protein degradation in SET2 cells, using methods as described above. DMSO was used as the vehicle control with no PROTAC® added. Co-administration of 20 μM of the proteasome inhibitor MG-132 with the PROTAC® compound at its highest concentration (i.e., 5 or 10 μM) tested was conducted to support the hypothesis that the degradation was driven by the ubiquitin-proteosome system (UPS). Degradation was evaluated by western blot densitometry quantitation using the FluorChem M instrument software to analyze the intensity of the JAK2 band signal at various concentrations of PROTAC® compound vs. the JAK2 band signal of the DMSO vehicle. It is noted that ˜82% of JAK2 exists as the V617F mutant, with the remaining 18% of JAK2 being WT. Therefore, if the V617F mutant JAK2 is selectively degraded over the WT, the maximum degradation is ˜80%. Degradation was graded as A: […]; B: ≥40% to <60% degradation; C: ≥20% to <40% degradation, D: <20% to ≥10%; E<10%. ** refers to degradation at 0.5 μM.

JAK2 % Degradation in SET2	SMILES
B** (B: ≥40% to <60% degradation)	COC(=O)N[C@@H]1CC[C@@H](n2c(=O)n(C)c3cnc4[nH]c(-c5ccc(C(=O)N6CCC(CN7CCN(c8ccc9c(c8)C(=O)N(C8CCC(=O)NC8=O)C9=O)CC7)CC6)c(F)c5)c(-c5ccc6c(cnn6C(C)C)c5)c4c32)C1 (stereo partly drawn) [Example 32, methyl ((1R,3R)-3-(7-(4-(4-((4-(2-(2,6-dioxopiperidin-3-yl)-1,3-dioxoisoindolin-5-yl)piperazin-1-yl)methyl)piperidine-1-carbonyl)-3-fluorophenyl)-8-(1-isopropyl-1H-indazol-5-yl)-3-methyl-2-oxo-3,6-dihydroimidazo[4,5-d]pyrrolo[2,3-b]pyridin-1(2H)-yl)cyclopentyl) carbamate]

Same assay, conditions: 5 μM compound, 8 hours treatment, western blot densitometry vs. DMSO vehicle

SMILES	JAK2 % Degradation in SET2
COC(=O)N[C@@H]1CC[C@@H](n2c(=O)n(C)c3cnc4[nH]c(-c5ccc(CN6CCN(CC7CCN(c8cccc9c8C(=O)N(C8CCC(=O)NC8=O)C9=O)CC7)CC6)cc5)c(-c5ccc6c(cnn6C(C)C)c5)c4c32)C1 (stereo partly drawn) [Example 42, Methyl((1R,3R)-3-(7-(4-((4-((1-(2-(2,6-dioxopiperidin-3-yl)-1,3-dioxoisoindolin-4-yl)piperidin-4-yl)methyl)piperazin-1-yl)methyl)phenyl)-8-(1-isopropyl-1H-indazol-5-yl)-3-methyl-2-oxo-3,6-dihydroimidazo[4,5-d]pyrrolo[2,3-b]pyridin-1(2H)-yl)cyclopentyl)carbamate]	A (A: ≥600% degradation)
COC(=O)N[C@@H]1CC[C@@H](n2c(=O)n(C)c3cnc4[nH]c(-c5ccc(C(=O)N6CCN(CC7CCN(c8cccc9c8C(=O)N(C8CCC(=O)NC8=O)C9=O)CC7)CC6)cc5)c(-c5ccc6c(cnn6C(C)C)c5)c4c32)C1 (stereo partly drawn) [Example 38, methyl ((1R,3R)-3-(7-(4-(4-((1-(2-(2,6-dioxopiperidin-3-yl)-1,3-dioxoisoindolin-4-yl)piperidin-4-yl)methyl)piperazine-1-carbonyl)phenyl)-8-(1-isopropyl-1H-indazol-5-yl)-3-methyl-2-oxo-3,6-dihydroimidazo[4,5-d]pyrrolo[2,3-b]pyridin-1(2H)-yl)cyclopentyl) carbamate]	A (A: ≥600% degradation)

Other lines, results leading:

JAK2 % Degradation in SET2	SMILES
C (C: ≥20% to <40% degradation)	COC(=O)N[C@@H]1CC[C@@H](n2c(=O)n(C)c3cnc4[nH]c(-c5ccc(CN6CCC(CN7CCN(c8cccc9c8C(=O)N(C8CCC(=O)NC8=O)C9=O)CC7)CC6)cc5)c(-c5ccc6c(cnn6C(C)C)c5)c4c32)C1 (stereo partly drawn) [Example 44, Methyl((1R,3R)-3-(7-(4-((4-((4-(2-(2,6-dioxopiperidin-3-yl)-1,3-dioxoisoindolin-4-yl)piperazin-1-yl)methyl)piperidin-1-yl)methyl)phenyl)-8-(1-isopropyl-1H-indazol-5-yl)-3-methyl-2-oxo-3,6-dihydroimidazo[4,5-d]pyrrolo[2,3-b]pyridin-1(2H)-yl)cyclopentyl)carbamate]
C (C: ≥20% to <40% degradation)	COC(=O)N[C@@H]1CC[C@@H](n2c(=O)n(C)c3cnc4[nH]c(-c5cnn(CC(=O)N6CCC(CN7CCN(c8ccc9c(c8)CN(C8CCC(=O)NC8=O)C9=O)CC7)CC6)c5)c(-c5ccc6c(cnn6C(C)C)c5)c4c32)C1 (stereo partly drawn) [Example 41, methyl ((1R,3R)-3-(7-(1-(2-(4-((4-(2-(2,6-dioxopiperidin-3-yl)-1-oxoisoindolin-5-yl)piperazin-1-yl)methyl)piperidin-1-yl)-2-oxoethyl)-1H-pyrazol-4-yl)-8-(1-isopropyl-1H-indazol-5-yl)-3-methyl-2-oxo-3,6-dihydroimidazo[4,5-d]pyrrolo[2,3-b]pyridin-1(2H)-yl)cyclopentyl) carbamate]

Same assay, conditions: 10 μM compound, 8 hours treatment, western blot densitometry vs. DMSO vehicle

SMILES	JAK2 % Degradation in SET2
COC(=O)N[C@@H]1CC[C@@H](n2c(=O)n(C)c3cnc4[nH]c(-c5ccc(C(=O)NCCOCCOCC(=O)N[C@H](C(=O)N6C[C@H](O)C[C@H]6C(=O)NCc6ccc(-c7scnc7C)cc6)C(C)(C)C)c(F)c5)c(-c5ccc6c(cnn6C(C)C)c5)c4c32)C1 [Example 14, methyl ((1R,3R)-3-(7-(3-fluoro-4-((2-(2-(2-(((S)-1-((2S,4R)-4-hydroxy-2-((4-(4-methylthiazol-5-yl)benzyl)carbamoyl)pyrrolidin-1-yl)-3,3-dimethyl-1-oxobutan-2-yl)amino)-2-oxoethoxy)ethoxy)ethyl)carbamoyl)phenyl)-8-(1-isopropyl-1H-indazol-5-yl)-3-methyl-2-oxo-3,6-dihydroimidazo[4,5-d]pyrrolo[2,3-b]pyridin-1(2H)-yl)cyclopentyl) carbamate]	C (C: ≥20% to <40% degradation)
COC(=O)N[C@@H]1CC[C@@H](n2c(=O)n(C)c3cnc4[nH]c(-c5ccc(C(=O)N6CCC(C(=O)Nc7ccc8c(c7)CN(C7CCC(=O)NC7=O)C8=O)CC6)cc5)c(-c5ccc6c(cnn6C(C)C)c5)c4c32)C1 (stereo partly drawn) [Example 60, Methyl((1R,3R)-3-(7-(4-(4-((2-(2,6-dioxopiperidin-3-yl)-1-oxoisoindolin-5-yl)carbamoyl)piperidine-1-carbonyl)phenyl)-8-(1-isopropyl-1H-indazol-5-yl)-3-methyl-2-oxo-3,6-dihydroimidazo[4,5-d]pyrrolo[2,3-b]pyridin-1(2H)-yl)cyclopentyl)carbamate]	C (C: ≥20% to <40% degradation)
CN[C@@H](C)C(=O)N[C@H](C(=O)N1C[C@@H](NC(=O)COCCOCCNC(=O)c2ccc(-c3[nH]c4ncc5c(c4c3-c3ccc4c(cnn4C(C)C)c3)n([C@@H]3CC[C@@H](NC(=O)OC)C3)c(=O)n5C)cc2F)C[C@H]1C(=O)N[C@@H]1CCCc2ccccc21)C1CCCCC1 [Example 51, Methyl((1R,3R)-3-(7-(4-((2-(2-(2-(((3S,5S)-1-((S)-2-cyclohexyl-2-((S)-2-(methylamino)propanamido)acetyl)-5-(((R)-1,2,3,4-tetrahydronaphthalen-1-yl)carbamoyl)pyrrolidin-3-yl)amino)-2-oxoethoxy)ethoxy)ethyl)carbamoyl)-3-fluorophenyl)-8-(1-isopropyl-1H-indazol-5-yl)-3-methyl-2-oxo-3,6-dihydroimidazo[4,5-d]pyrrolo[2,3-b]pyridin-1(2H)-yl)cyclopentyl)carbamate]	B (B: ≥40% to <60% degradation)

Next, values leading:

JAK2 % Degradation in SET2	SMILES
A (A: ≥600% degradation)	COC(=O)N[C@@H]1CC[C@@H](n2c(=O)n(C)c3cnc4[nH]c(-c5ccc(C(=O)N6CCC(CN7CCN(c8cccc9c8C(=O)N(C8CCC(=O)NC8=O)C9=O)CC7)CC6)c(F)c5)c(-c5ccc6c(cnn6C(C)C)c5)c4c32)C1 (stereo partly drawn) [Example 1, Methyl((1R,3R)-3-(7-(4-(4-((4-(2-(2,6-dioxopiperidin-3-yl)-1,3-dioxoisoindolin-4-yl)piperazin-1-yl)methyl)piperidine-1-carbonyl)-3-fluorophenyl)-8-(1-isopropyl-1H-indazol-5-yl)-3-methyl-2-oxo-3,6-dihydroimidazo[4,5-d]pyrrolo[2,3-b]pyridin-1(2H)-yl)cyclopentyl)carbamate]
B (B: ≥40% to <60% degradation)	COC(=O)N[C@@H]1CC[C@@H](n2c(=O)n(C)c3cnc4[nH]c(-c5ccc(C(=O)N6CCC(CN7CCN(c8cccc9c8C(=O)N(C8CCC(=O)NC8=O)C9=O)CC7)CC6)c(OC)c5)c(-c5ccc6c(cnn6C(C)C)c5)c4c32)C1 (stereo partly drawn) [Example 28, methyl ((1R,3R)-3-(7-(4-(4-((4-(2-(2,6-dioxopiperidin-3-yl)-1,3-dioxoisoindolin-4-yl)piperazin-1-yl)methyl)piperidine-1-carbonyl)-3-methoxyphenyl)-8-(1-isopropyl-1H-indazol-5-yl)-3-methyl-2-oxo-3,6-dihydroimidazo[4,5-d]pyrrolo[2,3-b]pyridin-1(2H)-yl)cyclopentyl) carbamate]
